Data on 17 compounds can be found in patent publication US11976083B2, “Inhibitors of peptidylarginine deiminases” (Gilead Sciences, Inc., priority 2020, dated 2024).

The term IC50 denotes the midpoint of a concentration-inhibition curve.

This assay addresses T1, human PAD4 (Homo sapiens, UniProt Q9UM07).
T1 construct: human PAD4 (NM_012387), A2-P663, was PCR amplified; His-SUMO (N, cleaved yes); made in house; host or cells: E. coli BL21(DE3)
The assay can be described thus: In vitro PAD4 BAEE biochemical assay. As to conditions: BAEE substrate 3 mM, 5 nM PAD4, 2 mM calcium chloride; geometric mean of multiple experiments. In a few lines: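 Recombinant PAD4 (5 nM final) with 2 mM CaCl2 was preincubated with compound for 30 min at 25 °C in MOPS pH 7.6 buffer with DTT, then reacted with 3 mM BAEE for 2 h at 25 °C. Released ammonia was detected fluorimetrically with o-phthalaldehyde/DTT; IC50 from four-parameter fit, geometric mean of experiments.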

T1 sequence (Q9UM07 2-663): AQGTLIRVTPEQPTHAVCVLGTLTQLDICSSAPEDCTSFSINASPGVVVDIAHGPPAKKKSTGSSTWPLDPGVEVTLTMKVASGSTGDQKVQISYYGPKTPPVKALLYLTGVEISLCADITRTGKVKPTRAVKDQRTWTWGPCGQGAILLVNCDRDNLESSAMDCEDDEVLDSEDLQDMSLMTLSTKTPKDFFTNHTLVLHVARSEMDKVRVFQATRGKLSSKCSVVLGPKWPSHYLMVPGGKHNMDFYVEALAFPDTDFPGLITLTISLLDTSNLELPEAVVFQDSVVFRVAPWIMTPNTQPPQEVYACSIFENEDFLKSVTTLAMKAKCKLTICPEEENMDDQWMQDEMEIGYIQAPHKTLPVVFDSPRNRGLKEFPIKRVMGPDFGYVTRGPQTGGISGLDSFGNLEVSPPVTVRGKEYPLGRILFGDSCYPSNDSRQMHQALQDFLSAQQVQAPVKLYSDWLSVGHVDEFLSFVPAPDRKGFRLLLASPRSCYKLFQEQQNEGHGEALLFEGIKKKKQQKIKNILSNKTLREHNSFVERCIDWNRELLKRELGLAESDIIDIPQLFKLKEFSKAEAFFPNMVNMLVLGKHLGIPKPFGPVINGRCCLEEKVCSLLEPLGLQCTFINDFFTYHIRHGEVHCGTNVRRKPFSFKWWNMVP

As for `C[C@@H]1c2ccc3cc(-c4nc5cc(C(=O)N6CCC[C@@H](N)[C@H]6C)cc(F)c5n4C4CC4)n(c3n2)CCCCCc2nc3ccccc3cc2C(=O)N1C` [Example 832, (2~{R})-21-[5-[(2~{R},3~{R})-3-amino-2-methyl-piperidine-1-carbonyl]-1-cyclopropyl-7-fluoro-benzimidazol-2-yl]-2,3-dimethyl-3,13,20,26-tetrazapentacyclo[18.5.2.0^ {5,14}.0^{7,12}.0^ {23,27}]heptacosa-1(26), 5(14),6,8,10,12,21,23(27), 24-nonaen-4-one], the IC50 came out at 0.013 µM.
For `C[C@H]1NC(=O)[C@H]2C[C@@H]2C/C=C/C(F)(F)Cn2c(-c3nc4cc(C(=O)N[C@H]5CNCC[C@@H]5F)c(F)c(F)c4n3C)cc3ccc1nc32` [Example 547, 2-[(2~{R},5~{S},7~ {S},9~{E})-11,11-difluoro-2-methyl-4-oxo-3,13,19-triazatetracyclo [11.5.2.0^{5,7}.0^{16,20}]icosa-1(19),9,14,16(20), 17-pentaen-14-yl]-6,7-difluoro-~ {N}-[(3~{S},4~{S})-4-fluoro-3-piperidyl]-1-methyl-benzimidazole-5-carboxamide] the value was 0.05 µM; for `COc1cc(C(=O)N2CCC[C@@H](N)C2)cc2nc(-c3cc4ccc5nc4n3CCCCCCC(C)(C)C(=O)N[C@@H]5C)n(C)c12` [Example 16, (11~{R})-17-[5-[(3~{R})-3-aminopiperidine-1-carbonyl]-7-methoxy-1-methyl-benzimidazol-2-yl]-8,8,11-trimethyl-1,10,19-triazatricyclo[10.5.2.0^{15,18}]nonadeca-12(19),13,15(18),16-tetraen-9-one], 0.067 µM; for `COc1cc(C(=O)N[C@H]2CNCC[C@@H]2F)cc2nc(-c3cc4ccc5nc4n3CCCCCC[C@H](OC)C(=O)N[C@@H]5C)n(C)c12` [Example 615, ˜{N}-[(3˜{S},4˜{S})-4-fluoro-3-piperidyl]-7-methoxy-2-[(8˜{S},11˜{R})-8-methoxy-11-methyl-9-oxo-1,10,19-triazatricyclo[10.5.2.0^{15,18}]nonadeca-12(19),13,15(18),16-tetraen-17-yl]-1-methyl-benzimidazole-5-carboxamide], 0.094 µM.
The figure for `CO[C@@H]1CCN(C(=O)c2cc(F)c3c(c2)nc(-c2cc4ccc5nc4n2CCCCCc2nc(Cl)ccc2C(=O)N[C@@H]5C)n3C2CC2)C[C@@H]1N` [Example 789, (2~{R})-17-[5-[(3~{S},4~{R})-3-amino-4-methoxy-piperidine-1-carbonyl]-1-cyclopropyl-7-fluoro-benzimidazol-2-yl]-8-chloro-2-methyl-3,9,16,22-tetrazatetracyclo[14.5.2.0^ {5,10}.0^{19,23}]tricosa-1(21),5(10),6,8,17,19,22-heptaen-4-one] is 0.022 µM; for `C[C@H]1NC(=O)[C@H]2[C@H](CCCCCn3c(-c4nc5cc(C(=O)N[C@H]6CNCC[C@@H]6F)c(F)cc5n4C)cc4ccc1nc43)C2(F)F` [Example 383, 2-[(2˜{R},5˜{R},7˜{S})-6,6-difluoro-2-methyl-4-oxo-3,13,19-triazatetracyclo[11.5.2.0^{5,7}.0^{16,20}]icosa-1(19),14,16(20),17-tetraen-14-yl]-6-fluoro-˜{N}-[(3˜{S},4˜{S})-4-fluoro-3-piperidyl]-1-methyl-benzimidazole-5-carboxamide] it is 0.028 µM.
The figure for `C[C@H]1NC(=O)c2ccc(Cl)nc2CCCCCn2c(-c3nc4cc(C(=O)N5C[C@H](N)CC[C@@H]5C)cc(F)c4n3C3CC3)cc3ccc1nc32` [Example 807, (2~{R})-17-[5-[(2~{S},5~{R})-5-amino-2-methyl-piperidine-1-carbonyl]-1-cyclopropyl-7-fluoro-benzimidazol-2-yl]-8-chloro-2-methyl-3,9,16,22-tetrazatetracyclo[14.5.2.0^ {5,10}.0^{19,23}]tricosa-1(21),5(10),6,8,17,19,22-heptaen-4-one] is 0.031 µM; for `COc1cc(C(=O)N2[C@H]3CC[C@@H]2[C@H](N)C3)cc2nc(-c3cc4ccc5cc4n3CCCCCOC(C)(C)C(=O)N[C@@H]5C)n(C)c12` [Example 222, (11~{R})-17-[5-[(1~{R},2~{R},4~{S})-2-amino-7-azabicyclo[2.2.1]heptane-7-carbonyl]-7-methoxy-1-methyl-benzimidazol-2-yl]-8,8,11-trimethyl-7-oxa-1,10-diazatricyclo[10.5.2.0^{15,18}]nonadeca-12(19),13,15(18),16-tetraen-9-one] it is 0.064 µM.
With `COc1cc(C(=O)N2CC[C@@H](OC)[C@@H](N)C2)cc2nc(-c3cc4ccc5nc4n3CC(F)(F)CCC[C@@H]3C[C@H]3C(=O)N(CC3CC3)[C@@H]5C)n(C)c12` [Example 868, (2~{R},5~{R},7~{R})-14-[5-[(3~{S},4~{R})-3-amino-4-methoxy-piperidine-1-carbonyl]-7-methoxy-1-methyl-benzimidazol-2-yl]-3-(cyclopropylmethyl)-11,11-difluoro-2-methyl-3,13,19-triazatetracyclo[11.5.2.0^ {5,7}.0^{16,20}]icosa-1(19), 14,16(20),17-tetraen-4-one], the IC50 stood at 0.037 µM.
The figure for `COc1cc(C(=O)N2CCC[C@@H](N)C2)cc2nc(-c3cc4ccc5nc4n3CCOCCOCCOC5C)n(C)c12` (some centres unmarked) [Example 298, [(3~{R})-3-amino-1-piperidyl]-[7-methoxy-1-methyl-2-(11-methyl-4,7,10-trioxa-1,19-diazatricyclo[10.5.2.0^{15,18}]nonadeca-12(19),13,15(18),16-tetraen-17-yl)benzimidazol-5-yl]methanone] is 0.914 µM; for `C[C@H]1NC(=O)[C@@H]2C[C@H]2CCCCCn2c(-c3nc4cc(C(=O)N[C@H]5CNCC[C@@H]5F)c(F)cc4n3C3C[C@@H]3C(F)F)cc3ccc1nc32` (single isomer, unassigned) [Example 410, 1-[(1~{R},2~{S})-2-(difluoromethyl)cyclopropyl]-6-fluoro-~ {N}-[(3~{S},4~{S})-4-fluoro-3-piperidyl]-2-[(2~{R},5~{R},7~{R})-2-methyl-4-oxo-3,13,19-triazatetracyclo[11.5.2.0^{5,7}.0^{16,20}]icosa-1(19),14,16(20),17-tetraen-14-yl]benzimidazole-5-carboxamide] it is 0.051 µM; for `COc1cc(C(=O)N2CC[C@@H](OC(F)F)[C@@H](N)C2)cc2nc(-c3cc4ccc5nc4n3CCCCCc3nccnc3C(=O)N[C@@H]5C)n(C3CC3)c12` [Example 612, (2~{R})-17-[5-[(3~{S),4~{R})-3-amino-4-(difluoromethoxy)piperidine-1-carbonyl]-1-cyclopropyl-7-methoxy-benzimidazol-2-yl]-2-methyl-3,6,9,16,22-pentazatetracyclo [14.5.2.0^{5,10}.0^{19, 23}]tricosa-1(21),5(10), 6,8,17,19,22-heptaen-4-one] it is 0.157 µM.
Consider `COc1cc(C(=O)N2[C@H]3CC[C@@H]2[C@H](N)C3)cc2nc(-c3cc4ccc5nc4n3C[C@H]3C[C@@H]3COCCC(=O)N[C@@H]5C)c(C)n12` [Example 323, (3~{S),5~{S},12~{R})-18-[7-[(1~{R},2~{R},4~{S})-2-amino-7-azabicyclo[2.2.1]heptane-7-carbonyl]-5-methoxy-3-methyl-imidazo[1,2-a]pyridin-2-yl]-12-methyl-7-oxa-1,11,20-triazatetracyclo[11.5.2.0^{3,5}.0^{16,19}] icosa-13(20),14,16(19),17-tetraen-10-one], for which the IC50 is 0.014 µM.
The figure for `COc1cc(C(=O)N2[C@H]3CC[C@@H]2[C@H](N)C3)cc2nc(-c3cc4ccc5nc4n3CCCCCCc3ccccc3C(=O)N[C@@H]5C)n(C)c12` [Example 40, (2~{R})-18-[5-[(1~{R},2~{R},4~{S})-2-amino-7-azabicyclo[2.2.1]heptane-7-carbonyl]-7-methoxy-1-methyl-benzimidazol-2-yl]-2-methyl-3,17,23-triazatetracyclo[15.5.2.0^{5,10).0^{20,24}] tetracosa-1(23),5,7,9,18,20(24),21-heptaen-4-one] is 0.024 µM; for `COc1cc(C(=O)N2CC[C@@H](OC)[C@@H](N)C2)cc2nc(-c3cc4ccc5nc4n3CCCCC[C@@H]3C[C@@]3(F)C(=O)N[C@@H]5C)n(C)c12` [Example 695, (2~{R},5~{S},7~{R})-14-[5-[(3~{S},4~{R})-3-amino-4-methoxy-piperidine-1-carbonyl]-7-methoxy-1-methyl-benzimidazol-2-yl]-5-fluoro-2-methyl-3,13,19-triazatetracyclo[11.5.2.0^ {5,7}.0^{16,20}]icosa-1(19), 14,16(20),17-tetraen-4-one] it is 0.057 µM; for `COc1cc(C(=O)N2C[C@H](N)[C@@H]3CC[C@H]2C3)cc2nc(-c3cc4ccc5nc4n3CCCCC[C@@H]3C[C@@]3(F)C(=O)N[C@@H]5C)n(C)c12` [Example 447, (2~{R},5~{S},7~{R})-14-[5-[(1~{S},4~{R},5~{R})-4-amino-2-azabicyclo[3.2.1]octane-2-carbonyl]-7-methoxy-1-methyl-benzimidazol-2-yl]-5-fluoro-2-methyl-3,13,19-triazatetracyclo[11.5.2.0^{5,7}.0^{16,20}] icosa-1(19),14,16(20),17-tetraen-4-one] it is 0.037 µM.
The figure for `COc1cc(C(=O)N2C[C@H](N)[C@H](OC)[C@@H](F)C2)cc2nc(-c3cc4ccc5nc4n3CC(F)(F)CCC[C@@H]3C[C@H]3C(=O)N[C@@H]5C)n(C)c12` [Example 681, (2~{R},5~{R},7~{R})-14-[5-[(3~{S},4~{S}, 5~{S})-3-amino-5-fluoro-4-methoxy-piperidine-1-carbonyl]-7-methoxy-1-methyl-benzimidazol-2-yl]-11,11-difluoro-2-methyl-3,13,19-triazatetracyclo [11.5.2.0^{5,7}.0^{16,20}] icosa-1(19),14,16(20), 17-tetraen-4-one] is 0.039 µM.
